Experimental data published in PMC8765437, “GSK3640254 Is a Novel HIV-1 Maturation Inhibitor with an Optimized Virology Profile” (Antimicrobial Agents and Chemotherapy, 2022).
Read-outs that look alike come from different tables or passages of the source.

System: NLRepRlucP373S viruses containing Gag SDMs or gag/pr genes from clinical isolates
Test: Multiple-cycle replication assay, NLRepRluc reporter viruses in MT-2 cells, luciferase endpoint
Format: cell-based, HIV-1
Text: Multiple-cycle assays using recombinant viruses or clinical isolates were used to assess MI antiviral activity as described previously ([10]). pNLRepRlucP373S (the P373S change is in the Gag gene and converts an outlier polymorphism in the NL4-3 gene to the prevalent amino acid in the population) plasmids containing SDMs in Gag or gag/pr regions from clinical isolates were transfected into HEK 293T cells, and the supernatant containing recombinant virus was harvested after 4 to 5 days. Virus was used to infect MT-2 cells in the presence of a 3-fold serially diluted compound at a final dimethyl sulfoxide (DMSO) concentration of 1%. The inocula of the reporter viruses were determined based on the luciferase activity detected on day 4 postinfection. The MOI (ratio of infectious virions to target cells) of reporter-free laboratory strains and clinical isolates was 0.005, as derived from a tissue culture infectious dose study. Clinical isolates or reporter-free viruses were examined in the reporter CEM-NKR-CCR5-Luc cells or PBMCs at MOIs ranging from 0.005 to 0.01. Each infection started with a drug-free preincubation of the cell-virus mixtures, performed at 37°C and 5% CO2 for either 1 h at 2 times the final cell density (reporter viruses) or 1 h (reporter-free laboratory strains) or 3 h (clinical isolates) using cell pellets in 0.5 mL of medium. After preincubation, cell-virus mixtures were added to compound-containing 96-well plates for a final cell density of either 10,000 (MT-2 cells for reporter viruses), 20,000 (MT-2 and PM1 cells for reporter-free laboratory strains), 200,000 (PBMCs for clinical isolates), or 500,000 (CEM-NKR-CCR5-Luc for reporter-free laboratory strains) cells per well. The CEM-NKR-CCR5-Luc cell assay was performed in the presence of Polybrene (10 μg/mL). Virus growth was determined on days 4 to 5 postinfection for reporter variants or days 5 to 11 for the other viruses. The reporter viruses were detected by a luciferase assay according to manufacturer protocols (Brite-Glo luciferase kit [Promega] for CEM-NKR-CCR5-Luc cells and Dual-Luciferase Reporter 1000 assay system [Promega] for the other cells), and luminescence was detected on a Wallac Trilux. The growth of clinical isolates in PBMCs was quantitated by reverse transcriptase activity in a 96-well scintillation proximity assay (SPA). Twenty microliters of culture supernatants was mixed with 40 μL of reaction cocktail (62.5 mM Tris-HCl [pH 7.8], 100 mM KCl, 0.0625% NP-40, 2.5 mM dithiothreitol [DTT], 6.25 mM MgCl2, 1 mM EGTA, 6.25 μg/mL of poly rA, 2.5 μg/mL of streptavidin SPA beads prebound with biotinylated-dT12-18, and 1 μCi of [^3H]TTP). Mixtures were incubated at 37°C for ∼3 h and quenched with 100 μl of 0.25 M EDTA per well. Luminescence was detected on a Wallac Trilux programmed for tritium counting with SPA beads in opaque plates. The growth of the reporter-free laboratory M-tropic strains and clinical isolates was monitored by a p24 enzyme-linked immunosorbent assay (ELISA; PerkinElmer Life Sciences, Waltham, MA) performed on culture supernatants. […] A 1:1,000 dilution of cell supernatant in PBS was generally observed to fall in the dynamic range of the endpoint signal.
Maximal percent inhibition values were calculated as MPI = 100 – (mean signals at the 2 highest concentrations of compound/mean signal of 2 no-drug control wells) × 100.

C=C(C)[C@@H]1CC[C@]2(NCCN3CCS(=O)(=O)CC3)CC[C@]3(C)[C@H](CC[C@@H]4[C@@]5(C)CC=C(c6ccc(C(=O)O)cc6)C(C)(C)[C@@H]5CC[C@]43C)[C@@H]12 [GSK’795, reference compound]
EC90 (Human immunodeficiency virus 1, MT2, read-out: PBA EC90, subtype B gag/pr 1000156 (V362I)): 600 nM | EC90 (Human immunodeficiency virus 1, MT2, read-out: PBA EC90, subtype B gag/pr 1900120 (V370M)): 6000 nM | EC90 (Human immunodeficiency virus 1, MT2, read-out: PBA EC90, subtype B gag/pr 1900140 (V362I)): 1930 nM | EC90 (Human immunodeficiency virus 1, MT2, read-out: PBA EC90, subtype C gag/pr 93MW690): 1370 nM | EC90 (Human immunodeficiency virus 1, MT2, read-out: PBA EC90, subtype C gag/pr 97ZA003): 2400 nM | EC90 (Human immunodeficiency virus 1, MT2, read-out: PBA EC90, subtype C gag/pr 98CN009): 1870 nM | EC90 (Human immunodeficiency virus 1, MT2, read-out: PBA EC90, subtype C gag/pr 98IN026): 70 nM | EC90 (Human immunodeficiency virus 1, MT2, read-out: PBA EC90, subtype C gag/pr 10215-6): 12000 nM | EC90 (Human immunodeficiency virus 1, MT2, read-out: PBA EC90, subtype C gag/pr 11657-3): 400 nM | EC90 (Human immunodeficiency virus 1, MT2, read-out: PBA EC90, subtype C gag/pr 20635-4): 1700 nM | EC90 (Human immunodeficiency virus 1, MT2, read-out: PBA EC90, subtype C gag/pr 20706-3): 370 nM | EC90 (Human immunodeficiency virus 1, MT2, read-out: PBA EC90, subtype C gag/pr 1300495): 2270 nM | EC90 (Human immunodeficiency virus 1, MT2, read-out: PBA EC90, subtype C gag/pr 1700141): 370 nM | EC90 (Human immunodeficiency virus 1, MT2, read-out: PBA EC90, subtype C gag/pr 1900543): 280 nM | EC90 (Human immunodeficiency virus 1, MT2, read-out: PBA EC90: Mean, minilibrary of HIV-1 polymorphisms, Fig. 1B, GSK’795 mean without 3 viruses lacking measurable EC90): 44800 nM | EC50 (Human immunodeficiency virus 1, MT2, subtype B gag/pr 4NRR (Wild-type)): 1 nM | EC50 (Human immunodeficiency virus 1, MT2, subtype B gag/pr 28-MDR (Wild-type)): 6 nM | EC50 (Human immunodeficiency virus 1, MT2, subtype B gag/pr 92BR014 (V370M)): 4 nM | EC50 (Human immunodeficiency virus 1, MT2, subtype B gag/pr 92BR018 (V, QAΔ)): 3 nM | EC50 (Human immunodeficiency virus 1, MT2, subtype B gag/pr 92TH014 (V362I)): 5 nM | EC50 (Human immunodeficiency virus 1, MT2, subtype B gag/pr 92TH026 (V362I)): 10 nM | EC50 (Human immunodeficiency virus 1, MT2, subtype B gag/pr 92US072 (V362I)): 3 nM | EC50 (Human immunodeficiency virus 1, MT2, subtype B gag/pr 92US729 (Wild-type)): 1 nM | EC50 (Human immunodeficiency virus 1, MT2, subtype B gag/pr 93BR008 (V362I)): 4 nM | EC50 (Human immunodeficiency virus 1, MT2, subtype B gag/pr 93BR009 (V370M)): 2 nM | EC50 (Human immunodeficiency virus 1, MT2, subtype B gag/pr 93BR017 (V, QAΔ)): 16 nM | EC50 (Human immunodeficiency virus 1, MT2, subtype B gag/pr 93BR022 (V, QAΔ)): 10 nM | EC50 (Human immunodeficiency virus 1, MT2, subtype B gag/pr 93BR024 (V362I)): 54 nM | EC50 (Human immunodeficiency virus 1, MT2, subtype B gag/pr 93TH0647 (V362I)): 3 nM | EC50 (Human immunodeficiency virus 1, MT2, subtype B gag/pr 93US141 (V362I)): 9 nM | EC50 (Human immunodeficiency virus 1, MT2, subtype B gag/pr 93US155 (V370T)): 5 nM | EC50 (Human immunodeficiency virus 1, MT2, subtype B gag/pr 411-1-C (Wild-type)): 1 nM | EC50 (Human immunodeficiency virus 1, MT2, subtype B gag/pr 220162 (Wild-type)): 5 nM | EC50 (Human immunodeficiency virus 1, MT2, subtype B gag/pr 400024 (V370M)): 19 nM | EC50 (Human immunodeficiency virus 1, MT2, subtype B gag/pr 400051 (V370A)): 2 nM | EC50 (Human immunodeficiency virus 1, MT2, subtype B gag/pr 1000156 (V362I)): 9 nM | EC50 (Human immunodeficiency virus 1, MT2, subtype B gag/pr 1900120 (V370M)): 8 nM | EC50 (Human immunodeficiency virus 1, MT2, subtype B gag/pr 1900140 (V362I)): 3 nM | EC50 (Human immunodeficiency virus 1, MT2, subtype C gag/pr 93MW690): 10 nM | EC50 (Human immunodeficiency virus 1, MT2, subtype C gag/pr 97ZA003): 6 nM | EC50 (Human immunodeficiency virus 1, MT2, subtype C gag/pr 98CN009): 11 nM | EC50 (Human immunodeficiency virus 1, MT2, subtype C gag/pr 98IN026): 3 nM | EC50 (Human immunodeficiency virus 1, MT2, subtype C gag/pr 10215-6): 7 nM | EC50 (Human immunodeficiency virus 1, MT2, subtype C gag/pr 11657-3): 6 nM | EC50 (Human immunodeficiency virus 1, MT2, subtype C gag/pr 20706-3): 4 nM | EC50 (Human immunodeficiency virus 1, MT2, subtype C gag/pr 1300495): 22 nM | EC50 (Human immunodeficiency virus 1, MT2, subtype C gag/pr 1700141): 8 nM | EC50 (Human immunodeficiency virus 1, MT2, subtype C gag/pr 1900543): 7 nM | MPI (SDM A326T/V362I/V370A): 6% | MPI (SDM A364V): 16% | MPI (SDM R361K/V362I/L363M): 68% | MPI (SDM T332S/V362I/prR41G): 65% | MPI (SDM V362I/V370A): 31% | MPI (SDM V370A): 84% | MPI (SDM Wild type): 94% | MPI (SDM ΔV370): 87% | EC50 (read-out: EC50 (range), Subtype B gag/pr viruses, n=24): 1 to 1400 nM
